Data taken from US20220170945A1, “METHOD FOR ASSISTING EVALUATION OF RENAL PATHOLOGICAL CONDITIONS, SYSTEM FOR EVALUATING RENAL PATHOLOGICAL CONDITIONS AND PROGRAM FOR EVALUATING RENAL PATHOLOGICAL CONDITIONS” (Kagami Inc., priority 2019, published 2022).

Conditions: human, in vivo
Description: According to the invention, the excretion rate (excretion) is a marker representing the degree of discharge into urine of the amount of target components that have been filtered through the glomeruli by way of the regulating function of the renal tubules (reabsorption and secretion), and it is expressed as a proportion or percentage, or in arbitrary units. The value can be calculated after excluding the effect of reabsorption or concentration of water by correction using a correction factor, and expressed as fractional excretion (FE). Since urine often has a variable concentration rate, the percentages of reabsorption and excretion of D-serine and/or D-asparagine in the kidneys of a subject may be corrected using a “correction factor” that corrects for the urine concentration rate. According to one embodiment of the invention, for example, the subject D-serine excretion rate and/or the subject D-asparagine excretion rate may be corrected by a correction factor derived from the blood and/or urine. In its most simple form, the excretion rate is expressed as a percentage of the amount of target components in urine divided by the glomerular filtration rate for the target components, and the glomerular filtration rate obtained by inulin clearance or the actually measured urinary volume, as well as the amounts of target components in blood and/or in urine, may also be used for the calculation. L-amino acid levels (preferably the levels of L-serine and/or L-asparagine) in urine may also be used as urinary volume correction factors for calculation of the D-amino acid excretion rate. Creatinine clearance, calculated by urine creatinine level or the blood creatinine level, may also be used as a correction factor, expressing the D-serine excretion rate by the following formula, for example. This may then be multiplied by 100 to obtain a percent (%).
The test protocol was approved by the ethics committee of the national research and development agency: National Institutes of Biomedical Innovation, Health and Nutrition, and written informed consent was obtained from all of the test subjects.
Sample preparation from human blood plasma and urine was carried out as follows: First a 20-fold volume of methanol was added to and completely mixed with the blood plasma. […]
The amino acid optical isomers were quantified using the following two-dimensional HPLC system. […] NBD-amino acids were detected by fluorescence detection at 530 nm using excitation light of 470 nm. The NBD-amino acid retention time was identified from standard amino acid optical isomers and quantified by a calibration curve.
The blood urine D-serine level and blood urine D-asparagine level and creatinine level were calculated by substitution into the following formulas.

| excretion rate after administration of ARB [%] | excretion rate before administration of ARB [%] | SMILES |
| --- | --- | --- |
| 25.73 | 64.56 | N[C@H](CO)C(=O)O [D-serine] |
| 35.39 | 45.71 | NC(=O)C[C@@H](N)C(=O)O [D-asparagine] |
